Reference: US20200188361A1, “USE OF MITOCHONDRIAL ACTIVITY INHIBITORS FOR THE TREATMENT OF POOR PROGNOSIS ACUTE MYELOID LEUKEMIA” (UNIVERSITE DE MONTREAL, priority 2016, published 2020)
Like-named read-outs stand apart in the source and are kept apart here.

Legend:
OCI-AML3 cells = experiment: Dose-response curves in AML cell line (6-day culture assay in 384-well plates); format: cell-based; conditions: dose-response curves FIGS. 5H-J
Method: FIGS. 5A-5J show the results on experiments assessing the mode of action of Mubritinib for mediating tumor cell death. FIG. 5A: OCI-AML3 leukemic cells were either pre-incubated for 4 hours with 6 mM N-acetyl-cysteine (NAC), a reactive oxygen species (ROS) scavenger, or with vehicle (water) before being treated with 100 nM Mubritinib for 24 h or vehicle (DMSO). […] FIGS. 5C and 5D show the levels of reduced and oxidized levels of glutathione, respectively, in OCI-AML3 treated or not with Mubritinib, as detected by liquid chromatography-mass spectrometry (LC/MS). […] FIG. 5G is a graph depicting dose-response curves upon Mubritinib treatment (6-day culture assay in 384-well plates) of OCI-AML3 and OCI-AML5 cell lines. FIGS. 5H-J are graphs depicting dose-response curves following treatment of OCI-AML3 and OCI-AML5 cell lines with other ETC inhibitors, namely Oligomycin (inhibitor of complex V, FIG. 5H), Rotenone (inhibitor of complex I, FIG. 5I) and Deguelin (inhibitor of complex I, FIG. 5J).
OCI-AML3 cells were maintained in alpha-MEM, 20% FBS whereas breat tumor BT474 cells were maintained in DMEM 10% FBS.
(§1) Patient cells were seeded in 384-well plates at a density of 5,000 cells in 50 μL per well. In the initial screen, compounds were added to seeded cells in serial dilutions (10 dilutions, 1:3, starting from 10 μM or 20 μM), in duplicates. Cells treated with 0.1% DMSO without additional compound were used as negative controls. Viable cell counts per well were evaluated after 6 days of culture using the CellTiterGlo® assay (Promega®) according to the manufacturer's instruction. The percent of inhibition was calculated as follows: 100−(100×(mean luminescence(compound)/mean luminescence(DMSO)); where mean-luminescence(compound) corresponds to the average of luminescent signals obtained for the compound-treated cells, and mean-luminescence(DMSO) corresponds to the average of luminescent signals obtained for the control DMSO-treated cells.

[1] = tested on: HOX-med/low AML patient cells; experiment: Primary chemical screen of 60 compounds, cell dose-response viability assay (CellTiterGlo, 6 days); format: cell-based, human; conditions: read-out: MEAN EC50 HOX-med/low
Method: (§2) frozen AML mono-nucleated cells were thawed at 37° C. in Iscove's modified Dulbecco's medium (IMDM) containing 20% FBS and DNase I (100 μg/mL).
(§3) All powders were dissolved in DMSO and diluted in culture medium immediately before use. Final DMSO concentration in all conditions was 0.1%. The 60 compounds were purchased from various suppliers including Santa Cruz, Selleckchem, Calbiochem, AdooQ Bioscience, Cayman chemical and Synkinase.
(§4) Patient cells were seeded in 384-well plates at a density of 5,000 cells in 50 μL per well. In the initial screen, compounds were added to seeded cells in serial dilutions (10 dilutions, 1:3, starting from 10 μM or 20 μM), in duplicates. Cells treated with 0.1% DMSO without additional compound were used as negative controls. Viable cell counts per well were evaluated after 6 days of culture using the CellTiterGlo® assay (Promega®) according to the manufacturer's instruction.
(§5) Using high expression of HOXA9 and HOXA10 as a surrogate for the detection of HOX-network-high patient samples, the survival of HOX-high versus HOX-med/low specimens contacted with 60 inhibitors targeting receptor tyrosine kinases (RTK), members of the RAS and PI3K pathways, was assessed (FIG. 2A, Table 4).

[2] = tested on: HOX-high AML patient cells; experiment: as above; format: cell-based, human; conditions: for EC50: read-out: MEAN EC50 HOX-high
Method: as §2, §3, §4, §5

AML patient specimens = experiment: Cell dose-response viability assay on AML patient specimens (primary and validation screen); format: cell-based, human; conditions: all 41 AML patient specimens tested, primary screen (FIG. 4D)
Method: as §2, §1

[3] = Homo sapiens, 144 h, primary screen, mean over HOX-med/low patient specimens, 6 days culture, top concentration 10 μM or 20 μM
[4] = Homo sapiens, 144 h, primary screen, mean over HOX-high patient specimens, 6 days culture, top concentration 10 μM or 20 μM
[5] = ratio of mean EC50 HOX-high to mean EC50 HOX-med/low
[6] = primary screen, mean over HOX-med/low patient specimens, 6 days culture, top concentration 10 μM or 20 μM
[7] = primary screen, mean over HOX-high patient specimens, 6 days culture, top concentration 10 μM or 20 μM

Row | Compound | EC50 [1, 3] [µM] | EC50 [2, 4] [µM] | FOLD CHANGE High/Med-low [2, 5] | further results
1 | COc1cc2c(cc1OC)[C@@H]1C(=O)c3ccc4c(c3O[C@@H]1CO2)C=CC(C)(C)O4 [Deguelin] | – | – | – | sensitivity of OCI-AML3 relative to OCI-AML5 (OCI-AML3 cells): more sensitive than OCI-AML5
2 | CC[C@H]1/C=C/C=C/C[C@@H](C)[C@H](O)[C@@](C)(O)C(=O)[C@@H](C)[C@H](O)[C@@H](C)C(=O)[C@@H](C)[C@H](O)[C@@H](C)/C=C/C(=O)O[C@@H]2[C@H](C)[C@H](CC1)O[C@]1(CC[C@H](C)[C@H](C[C@@H](C)O)O1)[C@H]2C [Oligomycin] | – | – | – | sensitivity of OCI-AML3 relative to OCI-AML5 (OCI-AML3 cells): more sensitive than OCI-AML5
3 | C=C(C)[C@H]1Cc2c(ccc3c2O[C@@H]2COc4cc(OC)c(OC)cc4[C@@H]2C3=O)O1 [Rotenone] | – | – | – | sensitivity of OCI-AML3 relative to OCI-AML5 (OCI-AML3 cells): more sensitive than OCI-AML5
4 | Cn1cncc1[C@@](N)(c1ccc(Cl)cc1)c1ccc2c(c1)c(-c1cccc(Cl)c1)cc(=O)n2C [Tipifarnib] | 0.158 | 0.109 | 0.7 | –
5 | NC1(c2ccc(-c3nc4ccn5c(=O)[nH]nc5c4cc3-c3ccccc3)cc2)CCC1 [MK2206] | 1.04 | 2.28 | 2.2 | –
6 | C=CCNC1=C2C[C@@H](C)C[C@H](OC)[C@H](O)[C@@H](C)/C=C(\C)[C@H](OC(N)=O)[C@@H](OC)/C=C\C=C(/C)C(=O)NC(=CC1=O)C2=O [Tanespimycin 17AAG, Tanespimycin] | 0.249 | 0.314 | 1.3 | –
7 | CC(C)c1cc(/C=C(\C#N)C(=O)NCCCc2ccccc2)cc(C(C)C)c1O [SU1498] | – | – | 1.0 | EC50 [1, 6]: 9.67 µM; EC50 [2, 7]: 9.86 µM
8 | N#Cc1ccc(C(=O)Nc2cc(N3CCCCC3)ccc2N2CCCCC2)o1 [cFMS Receptor Inhibitor IV] | – | – | 1.0 | EC50 [1, 6]: 9.57 µM; EC50 [2, 7]: > 10 µM
9 | CC(=O)Nc1cccc(-n2c(=O)n(C3CC3)c(=O)c3c(Nc4ccc(I)cc4F)n(C)c(=O)c(C)c32)c1 [Trametinib GSK1120212, Trametinib] | 0.018 | 0.0253 | 1.4 | –
10 | C[S+]([O-])c1ccc(-c2nc(-c3ccc(F)cc3)c(-c3ccncc3)[nH]2)cc1 (stereo not shown) [SB.203580] | – | – | – | EC50 [1]: > 10 µM; FOLD CHANGE High/Med-low [2]: 1.0; EC50 [2]: > 10 µM
11 | Cc1nc(NC(=O)N2CCC[C@H]2C(N)=O)sc1-c1ccnc(C(C)(C)C(F)(F)F)c1 [BYL719] | 4.75 | 7.52 | 1.6 | –
12 | C#Cc1cccc(Nc2ncnc3cc(OCCOC)c(OCCOC)cc23)c1 [Erlotinib] | 9.14 | 8.66 | 0.9 | –
13 | CNC(=O)c1cccc(-c2ccc3c(N4CCOC[C@@H]4C)nc(N4CCOC[C@@H]4C)nc3n2)c1 [AZD2014, 3-(2,4-bis((S)-3-methylmorpholino)pyrido[2,3-d]pyrimidin-7-yl)-N-methylbenzamide] | 0.217 | 0.782 | 3.6 | –
14 | CCCS(=O)(=O)Nc1ccc(F)c(C(=O)c2c[nH]c3ncc(-c4ccc(Cl)cc4)cc23)c1F [Vemurafenib] | 8.44 | 9.7 | 1.2 | –
15 | CN1CCC(c2[nH]nc(-c3ccc(Cl)cc3)c2-c2ccncn2)CC1 [p38 MAP Kinase Inhibitor V] | – | – | 0.8 | EC50 [1, 6]: 8.79 µM; EC50 [2, 7]: 7.31 µM
16 | CS(=O)(=O)N1CCN(Cc2cc3nc(-c4cccc5[nH]ncc45)nc(N4CCOCC4)c3s2)CC1 [GDC0941] | 0.603 | 1.11 | 1.8 | –

Row | Compound | EC50 [1, 3] [µM] | EC50 [2, 4] [µM] | FOLD CHANGE High/Med-low [2, 5] | further results
17 | COc1ccc(-c2ccc3c(N4CCOC[C@@H]4C)nc(N4CCOC[C@@H]4C)nc3n2)cc1CO [AZD8055, (5-(2,4-bis((S)-3-methylmorpholino)pyrido[2,3-d]pyrimidin-7-yl)-2-methoxyphenyl)methanol] | 0.0692 | 0.324 | 4.7 | –
18 | Cc1ccc(C(=O)Nc2cccc(C(F)(F)F)c2)cc1Nc1nc(-c2cccnc2)nc2c1cnn2C [NVPBHG712] | – | – | 0.9 | EC50 [1, 6]: 5.21 µM; EC50 [2, 7]: 4.44 µM
19 | COc1cccc2cc(-c3nc([C@H]4CC[C@H](C(=O)O)CC4)n4ncnc(N)c34)[nH]c12 [OSI027, (1r,4r)-4-(4-amino-5-(7-methoxy-1H-indol-2-yl)imidazo[1,5-f][1,2,4]triazin-7-yl)cyclohexanecarboxylic acid] | 0.666 | 2.03 | 3.1 | –
20 | COc1ccc2cc(-c3nc(-c4ccc([S+](C)[O-])cc4)[nH]c3-c3ccncc3)ccc2c1 (stereo not shown) [Tie2 Kinase Inhibitor] | – | – | 1.0 | EC50 [1, 6]: > 10 µM; EC50 [2, 7]: > 10 µM
21 | CC[C@H](Nc1ncnc2[nH]cnc12)c1nc2cccc(F)c2c(=O)n1-c1ccccc1 [GS1101 idelalisib CAL101, idelalisib] | 5.67 | 7.47 | 1.3 | –
22 | Nc1nc(Nc2ccc3c(c2)CCC(N2CCCC2)CC3)nn1-c1cc2c(nn1)-c1ccccc1CCC2 (stereo not shown) [R428] | – | – | 0.8 | EC50 [1, 6]: 0.592 µM; EC50 [2, 7]: 0.487 µM
23 | COc1cc2nccc(Oc3ccc(NC(=O)NC4CC4)c(Cl)c3)c2cc1C(N)=O [E7080 Lenvatinib., Lenvatinib] | 3.34 | 7.29 | 2.2 | –
24 | c1cc(CN2CCCNCCNCCCNCC2)ccc1CN1CCCNCCNCCCNCC1 [AMD3100] | > 10 | 9.59 | 1.0 | –
25 | Cn1cnc2c(F)c(Nc3ccc(Br)cc3Cl)c(C(=O)NOCCO)cc21 [Selumetinib AZD6244., Selumetinib] | 1.38 | 1.24 | 0.9 | –
26 | CO[C@H]1C[C@@H]2CC[C@@H](C)[C@@](O)(O2)C(=O)C(=O)N2CCCC[C@H]2C(=O)O[C@H]([C@H](C)C[C@@H]2CC[C@@H](O)[C@H](OC)C2)CC(=O)[C@H](C)/C=C(\C)[C@@H](O)[C@@H](OC)C(=O)[C@H](C)C[C@H](C)/C=C/C=C/C=C/1C [Rapamycin] | 0.951 | 1.89 | 2.0 | –
27 | NC(=O)c1ccc(N(C(N)=O)c2c(F)cccc2F)nc1-c1ccc(F)cc1F [VX702] | > 10 | 9.55 | 1.0 | –
28 | O=C(NOCC1CC1)c1ccc(F)c(F)c1Nc1ccc(I)cc1Cl [CI1040 PD.184352.] | 2.77 | 2.44 | 0.9 | –
29 | CN(C)CCOc1ccc(-c2nc(-c3ccncc3)c(-c3ccc4c(c3)CC/C4=N\O)[nH]2)cc1 [SB590885] | 3.88 | 5.88 | 1.5 | –
30 | CS(=O)(=O)CCNCc1ccc(-c2ccc3ncnc(Nc4ccc(OCc5cccc(F)c5)c(Cl)c4)c3c2)o1 [Lapatinib ditosylate., Lapatinib ditosylate] | 9.92 | 8.87 | 0.9 | sensitivity of AML patient specimens (AML patient specimens): resistant
31 | CNc1cc2c(Nc3cccc(Br)c3)ncnc2cn1 [PD158780] | – | – | 1.0 | EC50 [1, 6]: 7.71 µM; EC50 [2, 7]: 7.47 µM
